PubChem BioAssay AID2060892 (Molecular Pharmacology Branch, DTP, NCI, 2025)

Test system: HOP-62 complex spheroids with HUVEC/MSC, viability
Assay: Anticancer human tumor HOP-62 cell line growth inhibition [RAS];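 note: spheroids exposed to agents for seven days before readout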;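 for viability, T/C: 100% = DMSO vehicle control viability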
Details: for IC50: curve of first compound; for viability, T/C: stronger effect = lower value
Description: RAS pathway inhibitors in Combinations in Complex Spheroids
A high-throughput screen of multi-cell type tumor spheroids was designed to identify active combinations of RAS pathway inhibitors and targeted small molecules. Complex spheroids include a stromal component modeled by human endothelial cells (HUVEC) and fibroblasts modeled by human mesenchymal stem cells (MSCs). The concentration ranges selected for each drug and investigational agent were based upon clinically achievable concentrations if the clinical Cmax of the agent was known.
Compounds. The drugs and investigational agents: abemaciclib (NSC768073), cobimetinib (NSC768068), divarasib (GDC6063, NSC841802), docetaxel (NSC628503), GDC-1971 (RLY-1971, NSC841576), gemcitabine (NSC613327), inavolisib (NSC800729), ipatasertib (NSC767898), KB-0742 (NSC834161), MRTX-1133 (NSC836407), osimertinib (NSC779217), RMC-4630 (NSC839698), RMC-6236 (NSC851965), RMC-6291 (NSC852671), Ro-3306 (NSC812927), sapanisertib (NSC764658), SN-38 (NSC673596), staurosporine (NSC755774), SY5609 (NSC837396), and tovorafenib (DAY101, NSC766906), were obtained from the National Cancer Institute (NCI) Developmental Therapeutics Program Chemical Repository. The FDA-approved anticancer drug set is available from the NCI Developmental Therapeutics Program. […] The stock solutions were prepared in dimethyl sulfoxide (DMSO, Sigma-Aldrich, St. Louis, MO, cat. D2650) at 800-fold the tested concentration and stored at -70 degrees C prior to their use. All drugs and investigational agents were tested over a range starting from a high concentration at or near the clinical Cmax and decreasing in half-log increments. If the clinical Cmax for an agent had not been determined, the highest concentration tested was 10 microM.
Cell Culture. All cells were maintained in an incubator at 37 degrees C and 5% CO2 with 95% humidity. The PDC lines were cultured according to standard operating procedures established by the NCI PDMR. All PDCs were thawed and cultured in Matrigel-coated flasks prepared with a working solution of 1X Ham's F-12 nutrient mix, without supplementation (Invitrogen, Waltham, MA, cat. 11765054), 100 U/mL penicillin-streptomycin (Invitrogen, cat. 15140122), and 2.5% Matrigel (Corning Inc., Corning, NY, cat. 354248) for the first three passages. The 362531-283-R-J2-PDC and 782815-120-R-J1-PDC lines were cultured in 6C/Colon 1B media, which includes advanced DMEM/F-12 (Thermo Fisher Scientific, cat. 12634028), 10 mM HEPES (Thermo Fisher Scientific, cat. 15630080), 1X GlutaMAX supplement (Thermo Fisher Scientific, cat. 35050061), 0.1 mg/mL primocin (InvivoGen, San Diego, CA, cat. ant-pm-2), 10% defined fetal bovine serum, heat inactivated (HyClone Laboratories Inc., Logan, UT, cat. SH30070.03HI), 50% L-WRN conditioned media (ATCC, cat. CRL-3276), 1.25 mM N-Acetyl-L-cysteine (Sigma-Aldrich, cat. A9165), 10 mM nicotinamide (Sigma-Aldrich, cat. N0636), 1X B-27 supplement (Thermo Fisher Scientific, cat. 17504044), 1X N-2 supplement (Thermo Fisher Scientific, cat. 17502048), 50 ng/mL human EGF (Thermo Fisher Scientific, cat. PHG0311), and 10 microM Y-27632 dihydrochloride (Tocris Bioscience, cat. 1254). The K12877-001-R-J1-PDC line was cultured in 6I media, which includes all 6C/Colon 1B media plus 10 ng/mL human FGF-10 (PeproTech, cat. 100-26), 1 ng/mL human FGF-2 (PeproTech, cat. 100-18B), 1 µM prostaglandin E2 (Tocris Bioscience, cat. 2296), […] hydrocortisone (Sigma-Aldrich, cat. H4001), and […] bovine insulin (Sigma-Aldrich, cat. I6634). The K86415-001-R-J1-PDC line was cultured in 6D media, which includes all 6C/Colon 1B media components minus the L-WRN conditioned media. The 485176-168-R4-J1-PDC was cultured in PANC media, which includes all 6C/Colon 1B media plus 100 ng/mL human FGF-10 (PeproTech, cat. 100-26), 500 nM SB-431542 (Selleckchem, cat. S1067), and 10 nM gastrin (Tocris Bioscience, cat. 3006). […]

Q: `CC1(C)CCC(Nc2ncc(C(F)(F)F)c(-c3c[nH]c4c(P(C)(C)=O)c(C#N)ccc34)n2)CN1` (centres undefined) + CCn1c(-c2cccnc2C(C)OC)c2c3cc(ccc31)N1CCOC(CC(NC(=O)C(C(C)C)N(C)C(=O)C3(F)CCN(C(=O)C#CC(C)(C)N(C)C)CC3)C(=O)N3CCCC(N3)C(=O)OCC(C)(C)C2)C1 was tested. Which IC50 (second compound 0.000949 µM) did it give?
A: > 0.3 µM

Q: What about the IC50 (second compound 0.003 µM) of the same compound?
A: > 0.3 µM

Q: What about the IC50 (second compound 0.00949 µM) of the same compound?
A: > 0.3 µM

Q: What about the IC50 (second compound 0.03 µM) of the same compound?
A: 0.202 µM

Q: What about the IC50 (second compound 0.0949 µM) of the same compound?
A: 0.0312 µM

Q: And the IC50 (second compound 0.3 µM)?
A: 0.00299 µM

Q: What about the viability, T/C (second compound 0.000949 µM, first compound 0.000949 µM) of the same compound?
A: 108%

Q: What about the viability, T/C (second compound 0.000949 µM, first compound 0.003 µM) of the same compound?
A: 94.5%

Q: What about the viability, T/C (second compound 0.000949 µM, first compound 0.00949 µM) of the same compound?
A: 61.2%

Q: What about the viability, T/C (second compound 0.000949 µM, first compound 0.03 µM) of the same compound?
A: 68.8%

Q: What about the viability, T/C (second compound 0.000949 µM, first compound 0.0949 µM) of the same compound?
A: 80.4%

Q: What about the viability, T/C (second compound 0.000949 µM, first compound 0.3 µM) of the same compound?
A: 44.4%

Q: What about the viability, T/C (second compound 0.003 µM, first compound 0.000949 µM) of the same compound?
A: 105%

Q: What about the viability, T/C (second compound 0.003 µM, first compound 0.003 µM) of the same compound?
A: 78.5%

Q: What about the viability, T/C (second compound 0.003 µM, first compound 0.00949 µM) of the same compound?
A: 62.7%

Q: What about the viability, T/C (second compound 0.003 µM, first compound 0.03 µM) of the same compound?
A: 73.5%

Q: What about the viability, T/C (second compound 0.003 µM, first compound 0.0949 µM) of the same compound?
A: 62%

Q: What about the viability, T/C (second compound 0.003 µM, first compound 0.3 µM) of the same compound?
A: 49.6%

Q: And the viability, T/C (second compound 0.00949 µM, first compound 0.000949 µM)?
A: 97.3%

Q: What about the viability, T/C (second compound 0.00949 µM, first compound 0.003 µM) of the same compound?
A: 60.6%

Q: What about the viability, T/C (second compound 0.00949 µM, first compound 0.00949 µM) of the same compound?
A: 65.2%

Q: And the viability, T/C (second compound 0.00949 µM, first compound 0.03 µM)?
A: 66.7%

Q: What about the viability, T/C (second compound 0.00949 µM, first compound 0.0949 µM) of the same compound?
A: 61.6%

Q: What about the viability, T/C (second compound 0.00949 µM, first compound 0.3 µM) of the same compound?
A: 52.5%

Q: And the viability, T/C (second compound 0.03 µM, first compound 0.000949 µM)?
A: 86.8%

Q: What about the viability, T/C (second compound 0.03 µM, first compound 0.003 µM) of the same compound?
A: 72.3%

Q: What about the viability, T/C (second compound 0.03 µM, first compound 0.00949 µM) of the same compound?
A: 58.2%

Q: What about the viability, T/C (second compound 0.03 µM, first compound 0.03 µM) of the same compound?
A: 54.4%

Q: And the viability, T/C (second compound 0.03 µM, first compound 0.0949 µM)?
A: 42.8%

Q: What about the viability, T/C (second compound 0.03 µM, first compound 0.3 µM) of the same compound?
A: 55.6%

Q: And the viability, T/C (second compound 0.0949 µM, first compound 0.000949 µM)?
A: 83.3%

Q: And the viability, T/C (second compound 0.0949 µM, first compound 0.003 µM)?
A: 58.5%

Q: What about the viability, T/C (second compound 0.0949 µM, first compound 0.00949 µM) of the same compound?
A: 59.7%

Q: And the viability, T/C (second compound 0.0949 µM, first compound 0.03 µM)?
A: 55.8%

Q: And the viability, T/C (second compound 0.0949 µM, first compound 0.0949 µM)?
A: 33.1%

Q: And the viability, T/C (second compound 0.0949 µM, first compound 0.3 µM)?
A: 55.1%

Q: What about the viability, T/C (second compound 0.3 µM, first compound 0.000949 µM) of the same compound?
A: 73.3%

Q: And the viability, T/C (second compound 0.3 µM, first compound 0.003 µM)?
A: 49.8%

Q: What about the viability, T/C (second compound 0.3 µM, first compound 0.00949 µM) of the same compound?
A: 46.1%

Q: What about the viability, T/C (second compound 0.3 µM, first compound 0.03 µM) of the same compound?
A: 40.6%

Q: What about the viability, T/C (second compound 0.3 µM, first compound 0.0949 µM) of the same compound?
A: 40.1%

Q: What about the viability, T/C (second compound 0.3 µM, first compound 0.3 µM) of the same compound?
A: 49.2%

Q: What does the source list for `Cc1nc(N2CCC3(CC2)COC(C)C3N)c(CO)nc1Sc1ccnc(N)c1Cl` (centres undefined) + C#Cc1c(F)ccc2cc(O)cc(-c3ncc4c(N5CC6CCC(C5)N6)nc(OCC56CCCN5CC(F)C6)nc4c3F)c12?
A: IC50 (second compound 0.0316 µM): > 10 µM; IC50 (second compound 0.1 µM): > 10 µM; IC50 (second compound 0.316 µM): 3.11 µM; IC50 (second compound 1 µM): 0.669 µM; IC50 (second compound 3.16 µM): 0.113 µM; IC50 (second compound 10 µM): < 0.0316 µM; viability, T/C (second compound 0.0316 µM, first compound 0.0316 µM): 105%; viability, T/C (second compound 0.0316 µM, first compound 0.1 µM): 112%; viability, T/C (second compound 0.0316 µM, first compound 0.316 µM): 96.6%; viability, T/C (second compound 0.0316 µM, first compound 1 µM): 82.5%; viability, T/C (second compound 0.0316 µM, first compound 3.16 µM): 70.5%; viability, T/C (second compound 0.0316 µM, first compound 10 µM): 64.8%; viability, T/C (second compound 0.1 µM, first compound 0.0316 µM): 117%; viability, T/C (second compound 0.1 µM, first compound 0.1 µM): 97.7%; viability, T/C (second compound 0.1 µM, first compound 0.316 µM): 84.9%; viability, T/C (second compound 0.1 µM, first compound 1 µM): 79.1%; viability, T/C (second compound 0.1 µM, first compound 3.16 µM): 67.1%; viability, T/C (second compound 0.1 µM, first compound 10 µM): 48.5%; viability, T/C (second compound 0.316 µM, first compound 0.0316 µM): 108%; viability, T/C (second compound 0.316 µM, first compound 0.1 µM): 97.6%; viability, T/C (second compound 0.316 µM, first compound 0.316 µM): 82.4%; viability, T/C (second compound 0.316 µM, first compound 1 µM): 64.8%; viability, T/C (second compound 0.316 µM, first compound 3.16 µM): 51.1%; viability, T/C (second compound 0.316 µM, first compound 10 µM): 34.5%; viability, T/C (second compound 1 µM, first compound 0.0316 µM): 101%; viability, T/C (second compound 1 µM, first compound 0.1 µM): 79.5%; viability, T/C (second compound 1 µM, first compound 0.316 µM): 61.3%; viability, T/C (second compound 1 µM, first compound 1 µM): 46.6%; viability, T/C (second compound 1 µM, first compound 3.16 µM): 28.1%; viability, T/C (second compound 1 µM, first compound 10 µM): 25.6%; viability, T/C (second compound 3.16 µM, first compound 0.0316 µM): 64.3%; viability, T/C (second compound 3.16 µM, first compound 0.1 µM): 51.3%; viability, T/C (second compound 3.16 µM, first compound 0.316 µM): 38.1%; viability, T/C (second compound 3.16 µM, first compound 1 µM): 27.1%; viability, T/C (second compound 3.16 µM, first compound 3.16 µM): 16.8%; viability, T/C (second compound 3.16 µM, first compound 10 µM): 11.2%; viability, T/C (second compound 10 µM, first compound 0.0316 µM): 36.7%; viability, T/C (second compound 10 µM, first compound 0.1 µM): 32.4%; viability, T/C (second compound 10 µM, first compound 0.316 µM): 19.5%; viability, T/C (second compound 10 µM, first compound 1 µM): 10.1%; viability, T/C (second compound 10 µM, first compound 3.16 µM): 8.04%; viability, T/C (second compound 10 µM, first compound 10 µM): 8.15%
